Assay results published in US10793598B2, “GrB-EHITSN inhibitory peptides” (Rush University Medical Center, priority 2014, dated 2020).
No end group written: not given here.

T1: myc-GrB-EHITSN (Homo sapiens, UniProt Q15811)
T1 construct: with a conserved cleavage site (IDQD^271GK) throughout the evolution; expressed in transfected cells; host or cells: endothelial cells (ECs), stably transfected, neomycin-selected; lysates resolved by SDS-PAGE and blotted
T1 sequence (Q15811 1-271): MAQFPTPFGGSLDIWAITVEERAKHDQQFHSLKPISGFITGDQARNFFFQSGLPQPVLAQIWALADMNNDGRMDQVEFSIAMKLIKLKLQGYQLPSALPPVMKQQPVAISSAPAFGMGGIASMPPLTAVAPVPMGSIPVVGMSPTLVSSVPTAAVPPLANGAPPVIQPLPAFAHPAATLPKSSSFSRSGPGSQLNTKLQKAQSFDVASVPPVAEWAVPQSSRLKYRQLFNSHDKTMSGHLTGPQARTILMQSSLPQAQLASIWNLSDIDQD

B1: myc-GrB-EHITSN: myc-tagged granzyme B cleavage fragment of intersectin-1s (two EH domains), expressed from DNA plasmid delivered via cationic liposomes (protein)
chain: T1 sequence (Q15811 1-271)
modifications: left off: small tags and cut ends
notes: myc-tagged granzyme B cleavage fragment of intersectin-1s (two EH domains), expressed from DNA plasmid delivered via cationic liposomes

Columns and labels:
ECs = assay: Fluorescence microscopy of peptide internalization; assay type: cell-based; conditions: 12.5 μM PenNPF-FITC
Method: (§1) FIGS. 1A-1C illustrate the effect of the GrB-EHITSN inhibitory peptide on ECs. A. MTT assay applied on ECCtrl, myc-GrB-EHITSN-transfected ECs and myc-GrB-EHITSN-transfected ECs exposed to 12.5 μM PenNFP-FITC peptide for 1 h, 37° C.; p<0.05; WB of cell lysates (inset a1) of ECCtrl (a), myc-GrB-EHITSN-ECs (b) and myc-GrB-EHITSN-ECs+12.5 μM PenNPF for 1 h, 37° C. (c), using phospho (p)-p38 and p38 Abs. B. Quantification of EC proliferation: ECCtrl (a), myc-GrB-EHITSN-ECs (b), myc-GrB-EHITSN-ECs+12.5 μM PenNPF (c), myc-GrB-EHITSN-ECs+12.5 μM Pen-AAA (d), myc-GrB-EHITSN-ECs+12.5 μM Pen (e), myc-GrB-EHITSN-ECs+12.5 μM NPF (f), and myc-GrB-EHITSN-ECs+12.5 μM scrambled penNPF, (g). Data in A and B are mean±SEM of 3 independent experiments performed in triplicates. *p<0.05 vs. ECCtrl. C. Fluorescence microscopy of ECs exposed to 12.5 μM PenNPF-FITC, fixed and mounted on glass slides with Prolong Antifade with DAPI. Bar: 50 μm. Inset c1. ECCtrl (a) and myc-GrB-EHITSN-ECs (b) lysates resolved on SDS PAGE and transferred to nitrocellulose membranes were overlaid with the PenNFP-FITC.
(§2) ECs stably transfected with the myc-GrB-EHITSN [selected based on neomycin-resistance], were treated with the PenNPF-FITC peptide to address whether inhibition of GrB-EHITSN ameliorates EC proliferation. […] A growth curve was generated to relate the OD^570 values to the cell number per well. […]

myc-GrB-EHITSN = molecular target: T1, myc-GrB-EHITSN; assay: Overlay of lysates on nitrocellulose membranes with FITC peptide, detected by FITC Ab; assay type: binding; conditions: overlay on myc-GrB-EHITSN-EC lysates; n=3
Method: as §1, §2

[1] = system: myc-GrB-EHITSN-transfected ECs; assay: MTT assay of EC proliferation / cell growth; assay type: cell-based; conditions: for cell growth / EC proliferative potential (MTT): myc-GrB-EHITSN-transfected ECs, 12.5 μM peptide, 1 h, 37° C., vs transfected ECs not exposed
Method: (§3) (c), using phospho (p)-p38 and p38 Abs. […] C. […] Bar: 50 μm. Inset c1. ECCtrl (a) and myc-GrB-EHITSN-ECs (b) lysates resolved on SDS PAGE and transferred to nitrocellulose membranes were overlaid with the PenNFP-FITC.
(§4) ECs stably transfected with the myc-GrB-EHITSN [selected based on neomycin-resistance], were treated with the PenNPF-FITC peptide to address whether inhibition of GrB-EHITSN ameliorates EC proliferation. […] A growth curve was generated to relate the OD^570 values to the cell number per well. […] Inset c1. ECCtrl (a) and myc-GrB-EHITSN-ECs (b) lysates resolved on SDS PAGE and transferred to nitrocellulose membranes were overlaid with the PenNFP-FITC.

phospho-p38 = assay: WB of cell lysates using phospho (p)-p38 and p38 Abs; assay type: cell-based; conditions: GrB-EHITSN-transfected ECs, exposure for 24 h
Method: as §3, §4

myc-GrB-EHITSN-mice = assay: RVSP measured by right heart catheterization; assay type: in vivo, mouse
Method: FIGS. 3A-3D illustrate representative H&E staining of lung sections of myc-GrB-EHITSN-KDITSN mice (A, a1, B) and RVSP measurements (C) in wt-(bar a), empty-Lipo (bar b) and myc-GrB-EHITSN-mice (bar c), 10 days of GrB-EHITSN treatment. […] Data are mean±SEM. For morphological assessment of peptide internalization (panel D), mice were sacrificed 1 h after injection. Bars: 50 μm (A, B); 20 μm (a1, D). n=3.

BrdU+ ECs = assay: BrdU cell proliferation assay in mouse lungs; assay type: in vivo; conditions: myc-GrB-EHITSN plasmid via cationic liposomes into mouse lungs, day 6 of treatment
Text: FIGS. 2A-2B illustrate the proliferative effect of the GrB-EHITSN fragment on EC in vivo. Wt-mice (B) and myc-GrB-EHITSN-treated mice, day 5 of treatment (A) were subjected to BrdU proliferation assay. Data are mean±SEM. All data are representative of 3 mice in each group. Bars: 20 μm.
(§5) GrB-EHITSN has EC proliferative potential in vivo. To address the proliferative potential of GrB-EHITSN in vivo, the myc-GrB-EHITSN DNA plasmid was delivered via cationic liposomes into mouse lungs. (Knezevic, 2011). […] For continuous and efficient long-term expression of myc-GrB-EHITSN, mice were injected repeatedly every 48 h, for 9 days (Bardita, 2013). Actin was used as loading control. In parallel studies, myc-GrB-EHITSN-transduced mice (FIG. 2B) and wt-controls (FIG. 2A) were subjected to BrdU cell proliferation and morphometric analyses, at day 6 of GrB-EHITSN treatment (Bardita, 2013). BrdU was injected intra-peritoneally every 24 h, for 2 consecutive days (day 4 and 5 of myc-GrB-EHITSN treatment). Incorporated BrdU was detected via BrdU-FITC Ab; CD31 Ab/AlexaFluor 594 was used for positive identification of ECs. For morphological assessment of peptide internalization mice were sacrificed 1 h after injection. […] Data in FIG. 2A-B indicate that the GrB-EHITSN has EC proliferative in vivo.

[2] = WB with myc Ab on lung lysates (expression of the encoded protein); assay type: in vivo, mouse; conditions: after liposomal plasmid delivery; efficiently expressed at 48 h post-delivery
Method: as §5

GrB-EHITSN-mice = assay: Fulton's index (RV hypertrophy); assay type: in vivo, mouse; conditions: means±SEM, p<0.05 vs wt-mice
Text: GrB-EHITSN increases pulmonary pressure in mouse lungs. […] The Fulton's index (RV/left ventricle plus septum), indicative of RV hypertrophy, assessed as in (Qin, 2012) was higher in GrB-EHITSN-mice compared to wt-mice (0.31±0.03 vs. 0.22±0.01; means±SEM; p<0.05).

interaction with myc-GrB-EHITSN (myc-GrB-EHITSN)	Molecule	internalization by ECs (fluorescent imaging) (ECs)	decrease in the number of myc-GrB-EHITSN-transfected cells ([1]; calculated on 3 successive points of growth curve, vs transfected ECs not exposed to peptide)	cell growth / EC proliferative potential (MTT) [1]	OD570 values ([1]; wells with myc-GrB-EHITSN-transfected cells exposed to peptide)	phospho-p38 / p38 activation (phospho-p38)	decrease in RVSP (myc-GrB-EHITSN-mice; myc-GrB-EHITSN-mice, 50 μg PenNPF/mouse) [%]	increase in BrdU+ ECs relative to controls (BrdU+ ECs)	lifetime of encoded protein in mouse lung [2]	Fulton's index (RV/left ventricle plus septum) (GrB-EHITSN-mice)	increase in RVSP compared to wt- and empty liposomes-treated mice (myc-GrB-EHITSN-mice; day 10-post initial GrB-EHITSN delivery) [fold]
direct interaction	PenNPF-FITC: PenNPF inhibitory peptide carrying a FITC-tag (RQIKIWFQNRRMKWKKPTGSSSTNPFL; also: FITC tag, site not given here)	efficient internalization	greater than 35%	inhibits cell growth	close to the OD^570 values of control ECs	phospho-p38 inhibition					
	RQIKIWFQNRRMKWKKPTGSSSTNPFL (PenNPF fusion peptide)			decreases the ECs proliferative potential of GrB-EHITSN		decreases the ECs proliferative potential of GrB-EHITSN and p38 activation	20				
	B1							more than 1.6 fold	about 72 h	0.31±0.03	1.36
